Experimental data reported in PubChem BioAssay AID1918941 (Molecular Pharmacology Branch, DTP, NCI, 2023).

Test system: SW 1271 complex spheroids, viability
Assay: Anticancer human tumor SW 1271 cell line growth inhibition [LSD1];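 further: spheroids exposed to agents for 7 days before luminescence read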;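 on viability, T/C: 100% = DMSO vehicle control viability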
Details: for IC50: curve of first compound; for viability, T/C: stronger effect = lower value
Method in brief: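 Drug combinations with the LSD1 inhibitor iadademstat tested on tumor cells co-cultured as spheroids with endothelial cells and mesenchymal stem cells. Concentrations descended in half-log increments from clinical Cmax or 10 microM.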

[1] = second compound 0.1 µM, first compound 0.0316 µM
[2] = second compound 0.1 µM, first compound 0.1 µM
[3] = second compound 0.1 µM, first compound 0.316 µM
[4] = second compound 0.1 µM, first compound 1 µM
[5] = second compound 0.1 µM, first compound 3.16 µM
[6] = second compound 0.1 µM, first compound 10 µM
[7] = second compound 0.316 µM, first compound 0.0316 µM
[8] = second compound 0.316 µM, first compound 0.1 µM
[9] = second compound 0.316 µM, first compound 0.316 µM
[10] = second compound 0.316 µM, first compound 1 µM
[11] = second compound 0.316 µM, first compound 3.16 µM
[12] = second compound 0.316 µM, first compound 10 µM
[13] = second compound 1 µM, first compound 0.0316 µM
[14] = second compound 1 µM, first compound 0.1 µM
[15] = second compound 1 µM, first compound 0.316 µM
[16] = second compound 1 µM, first compound 1 µM
[17] = second compound 1 µM, first compound 3.16 µM
[18] = second compound 1 µM, first compound 10 µM
[19] = second compound 3.16 µM, first compound 0.0316 µM
[20] = second compound 3.16 µM, first compound 0.1 µM
[21] = second compound 3.16 µM, first compound 0.316 µM
[22] = second compound 3.16 µM, first compound 1 µM
[23] = second compound 3.16 µM, first compound 3.16 µM
[24] = second compound 3.16 µM, first compound 10 µM
[25] = second compound 10 µM, first compound 0.0316 µM
[26] = second compound 10 µM, first compound 0.1 µM
[27] = second compound 10 µM, first compound 0.316 µM
[28] = second compound 10 µM, first compound 1 µM
[29] = second compound 10 µM, first compound 3.16 µM
[30] = second compound 10 µM, first compound 10 µM
[31] = second compound 0.1 µM, first compound 0.00949 µM
[32] = second compound 0.1 µM, first compound 0.03 µM
[33] = second compound 0.1 µM, first compound 0.0949 µM
[34] = second compound 0.1 µM, first compound 0.3 µM
[35] = second compound 0.316 µM, first compound 0.00949 µM
[36] = second compound 0.316 µM, first compound 0.03 µM
[37] = second compound 0.316 µM, first compound 0.0949 µM
[38] = second compound 0.316 µM, first compound 0.3 µM
[39] = second compound 1 µM, first compound 0.00949 µM
[40] = second compound 1 µM, first compound 0.03 µM
[41] = second compound 1 µM, first compound 0.0949 µM
[42] = second compound 1 µM, first compound 0.3 µM
[43] = second compound 3.16 µM, first compound 0.00949 µM
[44] = second compound 3.16 µM, first compound 0.03 µM
[45] = second compound 3.16 µM, first compound 0.0949 µM
[46] = second compound 3.16 µM, first compound 0.3 µM
[47] = second compound 10 µM, first compound 0.00949 µM
[48] = second compound 10 µM, first compound 0.03 µM
[49] = second compound 10 µM, first compound 0.0949 µM
[50] = second compound 10 µM, first compound 0.3 µM

## CC1(C)CCC(CN2CCN(c3ccc(C(=O)NS(=O)(=O)c4ccc(NCC5CCOCC5)c([N+](=O)[O-])c4)c(Oc4cnc5[nH]ccc5c4)c3)CC2)=C(c2ccc(Cl)cc2)C1 + NC1CC1c1ccc(-c2cccc(O)c2)cc1
Second compound 0.1 µM
  IC50: 2550 nM
Second compound 0.316 µM
  IC50: 2970 nM
Second compound 1 µM
  IC50: 2490 nM
Second compound 3.16 µM
  IC50: 1910 nM
Second compound 10 µM
  IC50: 2100 nM
[1]
  viability, T/C: 80.6%
[2]
  viability, T/C: 84.3%
[3]
  viability, T/C: 91.6%
[4]
  viability, T/C: 78.3%
[5]
  viability, T/C: 43.4%
[6]
  viability, T/C: 1.33%
[7]
  viability, T/C: 85.8%
[8]
  viability, T/C: 95%
[9]
  viability, T/C: 91.8%
[10]
  viability, T/C: 85.5%
[11]
  viability, T/C: 47.9%
[12]
  viability, T/C: 1.12%
[13]
  viability, T/C: 91.3%
[14]
  viability, T/C: 78.7%
[15]
  viability, T/C: 82.4%
[16]
  viability, T/C: 80.8%
[17]
  viability, T/C: 42%
[18]
  viability, T/C: 1.39%
[19]
  viability, T/C: 78.4%
[20]
  viability, T/C: 81.7%
[21]
  viability, T/C: 79%
[22]
  viability, T/C: 66.6%
[23]
  viability, T/C: 36.7%
[24]
  viability, T/C: 1.44%
[25]
  viability, T/C: 73.3%
[26]
  viability, T/C: 65.6%
[27]
  viability, T/C: 64.1%
[28]
  viability, T/C: 69.8%
[29]
  viability, T/C: 40%
[30]
  viability, T/C: 0.32%

## CC1COCCN1c1cc(C2(S(C)(=N)=O)CC2)nc(-c2ccnc3[nH]ccc23)n1 (stereo not given) + NC1CC1c1ccc(-c2cccc(O)c2)cc1
Second compound 0.1 µM
  IC50: 1870 nM
Second compound 0.316 µM
  IC50: 2600 nM
Second compound 1 µM
  IC50: > 10000 nM
Second compound 3.16 µM
  IC50: 1360 nM
Second compound 10 µM
  IC50: 954 nM
[1]
  viability, T/C: 84.8%
[2]
  viability, T/C: 79.5%
[3]
  viability, T/C: 65.5%
[4]
  viability, T/C: 49%
[5]
  viability, T/C: 53.7%
[6]
  viability, T/C: 45.6%
[7]
  viability, T/C: 81.3%
[8]
  viability, T/C: 82.1%
[9]
  viability, T/C: 65%
[10]
  viability, T/C: 57.1%
[11]
  viability, T/C: 46%
[12]
  viability, T/C: 49.4%
[13]
  viability, T/C: 75%
[14]
  viability, T/C: 95.2%
[15]
  viability, T/C: 70.1%
[16]
  viability, T/C: 56.7%
[17]
  viability, T/C: 51.6%
[18]
  viability, T/C: 47.1%
[19]
  viability, T/C: 70.2%
[20]
  viability, T/C: 69.9%
[21]
  viability, T/C: 72.6%
[22]
  viability, T/C: 51.7%
[23]
  viability, T/C: 46.7%
[24]
  viability, T/C: 43.8%
[25]
  viability, T/C: 48.1%
[26]
  viability, T/C: 61.1%
[27]
  viability, T/C: 59.2%
[28]
  viability, T/C: 49.7%
[29]
  viability, T/C: 42%
[30]
  viability, T/C: 46.2%

## CCN(c1cc(-c2ccc(CN3CCOCC3)cc2)cc(C(=O)NCc2c(C)cc(C)[nH]c2=O)c1C)C1CCOCC1 + NC1CC1c1ccc(-c2cccc(O)c2)cc1
Second compound 0.1 µM
  IC50: > 3000 nM
Second compound 0.316 µM
  IC50: > 3000 nM
Second compound 1 µM
  IC50: > 3000 nM
Second compound 3.16 µM
  IC50: > 3000 nM
Second compound 10 µM
  IC50: > 3000 nM
[31]
  viability, T/C: 83.2%
[32]
  viability, T/C: 82.9%
[33]
  viability, T/C: 86%
[34]
  viability, T/C: 72.4%
Second compound 0.1 µM, first compound 0.949 µM
  viability, T/C: 68.2%
Second compound 0.1 µM, first compound 3 µM
  viability, T/C: 60%
[35]
  viability, T/C: 83.9%
[36]
  viability, T/C: 82.2%
[37]
  viability, T/C: 74.6%
[38]
  viability, T/C: 72.4%
Second compound 0.316 µM, first compound 0.949 µM
  viability, T/C: 71.3%
Second compound 0.316 µM, first compound 3 µM
  viability, T/C: 57.3%
[39]
  viability, T/C: 82.1%
[40]
  viability, T/C: 78.4%
[41]
  viability, T/C: 83.8%
[42]
  viability, T/C: 64.8%
Second compound 1 µM, first compound 0.949 µM
  viability, T/C: 59.4%
Second compound 1 µM, first compound 3 µM
  viability, T/C: 56.3%
[43]
  viability, T/C: 80.6%
[44]
  viability, T/C: 85.1%
[45]
  viability, T/C: 78.1%
[46]
  viability, T/C: 65.7%
Second compound 3.16 µM, first compound 0.949 µM
  viability, T/C: 63.7%
Second compound 3.16 µM, first compound 3 µM
  viability, T/C: 56.2%
[47]
  viability, T/C: 66.9%
[48]
  viability, T/C: 66.8%
[49]
  viability, T/C: 64.8%
[50]
  viability, T/C: 51.8%
Second compound 10 µM, first compound 0.949 µM
  viability, T/C: 58.7%
Second compound 10 µM, first compound 3 µM
  viability, T/C: 58.2%

## Cn1ncnc1C1c2n[nH]c(=O)c3cc(F)cc(c23)NC1c1ccc(F)cc1 (stereo not given) + NC1CC1c1ccc(-c2cccc(O)c2)cc1
Second compound 0.1 µM
  IC50: > 100 nM
Second compound 0.316 µM
  IC50: > 100 nM
Second compound 1 µM
  IC50: > 100 nM
Second compound 3.16 µM
  IC50: > 100 nM
Second compound 10 µM
  IC50: 65.5 nM
Second compound 0.1 µM, first compound 0.000316 µM
  viability, T/C: 97.8%
Second compound 0.1 µM, first compound 0.001 µM
  viability, T/C: 80.9%
Second compound 0.1 µM, first compound 0.00316 µM
  viability, T/C: 72.3%
Second compound 0.1 µM, first compound 0.01 µM
  viability, T/C: 85.8%
[1]
  viability, T/C: 71.3%
[2]
  viability, T/C: 66.7%
Second compound 0.316 µM, first compound 0.000316 µM
  viability, T/C: 77.6%
Second compound 0.316 µM, first compound 0.001 µM
  viability, T/C: 72.6%
Second compound 0.316 µM, first compound 0.00316 µM
  viability, T/C: 67.5%
Second compound 0.316 µM, first compound 0.01 µM
  viability, T/C: 68.9%
[7]
  viability, T/C: 71%
[8]
  viability, T/C: 77%
Second compound 1 µM, first compound 0.000316 µM
  viability, T/C: 78.1%
Second compound 1 µM, first compound 0.001 µM
  viability, T/C: 75.7%
Second compound 1 µM, first compound 0.00316 µM
  viability, T/C: 72.8%
Second compound 1 µM, first compound 0.01 µM
  viability, T/C: 67.5%
[13]
  viability, T/C: 66.1%
[14]
  viability, T/C: 82.7%
Second compound 3.16 µM, first compound 0.000316 µM
  viability, T/C: 75.8%
Second compound 3.16 µM, first compound 0.001 µM
  viability, T/C: 85.5%
Second compound 3.16 µM, first compound 0.00316 µM
  viability, T/C: 78.9%
Second compound 3.16 µM, first compound 0.01 µM
  viability, T/C: 57.3%
[19]
  viability, T/C: 59.2%
[20]
  viability, T/C: 57.9%
Second compound 10 µM, first compound 0.000316 µM
  viability, T/C: 64.7%
Second compound 10 µM, first compound 0.001 µM
  viability, T/C: 66.7%
Second compound 10 µM, first compound 0.00316 µM
  viability, T/C: 67.2%
Second compound 10 µM, first compound 0.01 µM
  viability, T/C: 61.3%
[25]
  viability, T/C: 48.6%
[26]
  viability, T/C: 49.7%

## Nc1ncn(C2CC(O)C(CO)S2)c(=O)n1 (stereo not given) + NC1CC1c1ccc(-c2cccc(O)c2)cc1
Second compound 0.1 µM
  IC50: > 300 nM
Second compound 0.316 µM
  IC50: > 300 nM
Second compound 1 µM
  IC50: > 300 nM
Second compound 3.16 µM
  IC50: > 300 nM
Second compound 10 µM
  IC50: > 300 nM
Second compound 0.1 µM, first compound 0.000949 µM
  viability, T/C: 90.1%
Second compound 0.1 µM, first compound 0.003 µM
  viability, T/C: 91.7%
[31]
  viability, T/C: 82%
[32]
  viability, T/C: 76.2%
[33]
  viability, T/C: 82%
[34]
  viability, T/C: 63%
Second compound 0.316 µM, first compound 0.000949 µM
  viability, T/C: 79.2%
Second compound 0.316 µM, first compound 0.003 µM
  viability, T/C: 83.6%
[35]
  viability, T/C: 86.3%
[36]
  viability, T/C: 67.9%
[37]
  viability, T/C: 53.5%
[38]
  viability, T/C: 57.8%
Second compound 1 µM, first compound 0.000949 µM
  viability, T/C: 85.3%
Second compound 1 µM, first compound 0.003 µM
  viability, T/C: 73.3%
[39]
  viability, T/C: 75.6%
[40]
  viability, T/C: 65.3%
[41]
  viability, T/C: 64.4%
[42]
  viability, T/C: 67.5%
Second compound 3.16 µM, first compound 0.000949 µM
  viability, T/C: 70.5%
Second compound 3.16 µM, first compound 0.003 µM
  viability, T/C: 79.4%
[43]
  viability, T/C: 79.1%
[44]
  viability, T/C: 62.3%
[45]
  viability, T/C: 60.8%
[46]
  viability, T/C: 58.8%
Second compound 10 µM, first compound 0.000949 µM
  viability, T/C: 66.4%
Second compound 10 µM, first compound 0.003 µM
  viability, T/C: 65.1%
[47]
  viability, T/C: 60.9%
[48]
  viability, T/C: 66.5%
[49]
  viability, T/C: 62.7%
[50]
  viability, T/C: 58.9%
